“Also recorded” adds a separate entry of the source.
Experiments:
C57BL/6 mice [1] = assay: Renal IRI in WT mice: IL-6 levels by ELISA; assay type: in vivo
Experimental: (§1) All experiments were performed in accordance with the National Institutes of Health and Institutional Animal Care and Use Guidelines. The Animal Care and Use Committee of the University of Virginia approved all procedures and protocols. C57BL/6 mice from the Jackson Laboratory and hepcidin knockout mice (HAMP−/−), a kind gift from Dr Cindy Roy (John Hopkins University) were used in this study. All experiments were performed on 8-10 weeks old male mice. Kidney ischemia-reperfusion surgery was performed as previously reported (44). The core temperature of the mice was maintained between 34° C. and 36° C. using a heating pad. After anesthetizing the mice (ketamine, 12 mg/ml; atropine, 0.48 mg/ml; xylazine, 24 mg/ml; […] mixture administered per 20 g body weight), bilateral flank incisions were made, both renal pedicles were exposed, and cross-clamped for 26 minutes (severe I/R injury) or 24 minutes (mild I/R injury). After the determined ischemia, clamps were removed, and kidneys were allowed to reperfuse for 24 hours. Ambient postoperative air temperature was maintained between 30° C. and 32° C. until mice had fully recovered. Sham-operated animals underwent bilateral flank incisions without clamping of renal pedicles. […]
(§2) Serum iron (Abcam), hepcidin (Intrinsic Lifescience) and IL-6 levels (eBioscience) were measured using commercial ELISA kits, as per manufacturers instructions.

[2] = test system: hepcidin knockout mice (HAMP−/−); assay: Renal IRI in HAMP-/- mice: serum IL-6 by ELISA; assay type: in vivo; conditions: HAMP-/- IRI Vs HAMP-/- Hepcidin-IRI, p<0.05; FIG. 10b
Experimental: as §1, §2

C57BL/6 mice [3] = assay: Renal IRI in WT mice: splenic ferroportin (immunofluorescence) and splenic H-Ferritin (Western blot); assay type: in vivo; conditions: for splenic H-Ferritin: WT hepcidin IRI vs IRI and vs Sham, p<0.05, FIG. 9b
Experimental: as §1, with “pedicles. Twenty-four hours later, mice were euthanized, and tissues were harvested.” for “pedicles.”
(§3) Snap frozen tissue sections were homogenized in Tris-Triton tissue lysis buffer containing complete protease inhibitor cocktail using a Dounce Homogenizer. […] H-Ferritin was measured in the whole kidney and spleen lysates. […] The primary antibodies were detected with Donkey anti-goat Alexa 800 and goat anti-rabbit Alexa 800 antibodies (LiCor Bioscience). Mouse monoclonal GAPDH and β-Actin (Abcam) were used as the loading controls and detected using Donkey anti Mouse Alexa 680 antibody (LiCor Bioscience). Quantitation of data was performed using densitometry software (Licor Bioscience).

C57BL/6 mice [4] = assay: Renal IRI in WT mice: Western blot of kidney ferroportin and H-Ferritin; assay type: in vivo; conditions: for kidney ferroportin expression (membrane fraction): pretreatment with hepcidin, p<0.01, FIG. 5a-b
Experimental: as §1, with “pedicles. Twenty-four hours later, mice were euthanized, and tissues were harvested.” for “pedicles.”
as §3

splenocytes from WT mice = assay: Iron stimulation of splenocytes, IL-6 secretion by ELISA; assay type: cell-based; conditions: 1 μg/mL hepcidin for 4 hours, vs untreated splenocytes; FIG. 10c
Experimental: Splenocytes were harvested from 10-week-old B6 male mice. After excising the spleen, red blood cells were lysed and the remaining splenocytes were seeded at 1×10^6 cells/mL in 24-well tissue culture plates and cultured under 5% CO2 at 37° C. for 24 hours. The culture medium consisted of RPMI 1640 medium supplemented with 10% fetal calf serum (FCS), 100 U/mL penicillin, 100 μg/mL streptomycin, 1% non-essential amino acids (Gibco/Life Technologies, Foster, Calif., USA), 2 mM L-glutamine (Sigma), and 50/μM 2-mercaptoethanol. After resting for 24 hours, the cells were treated with 10 μM […] (FAC), 1 μg/mL hepcidin or saline for 4 hours. The cell culture supernatants were harvested and quantified for the levels of IL-6 by ELISA (eBioscience).

[5] = test system: hepcidin knockout mice (HAMP−/−); assay: Renal IRI in HAMP-/- mice: splenic ferroportin and splenic H-Ferritin; assay type: in vivo; conditions: for splenic H-Ferritin: HAMP-/- Hepcidin-IRI vs HAMP-/- IRI and vs Sham, p<0.005, FIG. 9c
Experimental: All experiments were performed in accordance with the National Institutes of Health and Institutional Animal Care and Use Guidelines. The Animal Care and Use Committee of the University of Virginia approved all procedures and protocols. C57BL/6 mice from the Jackson Laboratory and hepcidin knockout mice (HAMP−/−), a kind gift from Dr Cindy Roy (John Hopkins University) were used in this study. All experiments were performed on 8-10 weeks old male mice. Kidney ischemia-reperfusion surgery was performed as previously reported (44). The core temperature of the mice was maintained between 34° C. and 36° C. using a heating pad. After anesthetizing the mice (ketamine, 12 mg/ml; atropine, 0.48 mg/ml; xylazine, 24 mg/ml; […] mixture administered per 20 g body weight), bilateral flank incisions were made, both renal pedicles were exposed, and cross-clamped for 26 minutes (severe I/R injury) or 24 minutes (mild I/R injury). After the determined ischemia, clamps were removed, and kidneys were allowed to reperfuse for 24 hours. Ambient postoperative air temperature was maintained between 30° C. and 32° C. until mice had fully recovered. Sham-operated animals underwent bilateral flank incisions without clamping of renal pedicles. Twenty-four hours later, mice were euthanized, and tissues were harvested.
Snap frozen tissue sections were homogenized in Tris-Triton tissue lysis buffer containing complete protease inhibitor cocktail using a Dounce Homogenizer. Membrane fractions were isolated from the whole kidney lysate using membrane isolation kit (Thermo Pierce) to determine ferroportin expression. H-Ferritin was measured in the whole kidney and spleen lysates. […] The primary antibodies were detected with Donkey anti-goat Alexa 800 and goat anti-rabbit Alexa 800 antibodies (LiCor Bioscience). Mouse monoclonal GAPDH and β-Actin (Abcam) were used as the loading controls and detected using Donkey anti Mouse Alexa 680 antibody (LiCor Bioscience). Quantitation of data was performed using densitometry software (Licor Bioscience).

Mouse hepcidin 25 (DTNFPICIFCCKCCNNSQCGICCKT; listed as Mus musculus)
serum IL-6 levels (C57BL/6 mice [1]; WT-IRI Vs WT Hepcidin-IRI, p<0.007, FIG. 10a): prevented IRI-induced increase in IL-6 levels; also recorded: prevented by Hepcidin | splenic, renal, and systemic IL-6 levels (C57BL/6 mice [1]; hepcidin treatment, renal IRI (discussion)): significantly prevented IRI-induced increase in splenic, renal, and systemic IL-6 levels | serum IL-6 levels [2]: prevented IRI-induced increase in IL-6 levels; also recorded: significantly reduced serum IL6 compared to untreated | splenic H-Ferritin (C57BL/6 mice [3]): increased splenic H-Ferritin levels | splenic H-Ferritin (C57BL/6 mice [3]; listed as hepcidin): significantly higher H-Ferritin compared to both untreated IRI mice and sham controls | splenic ferroportin expression (C57BL/6 mice [3]; hepcidin treatment, renal IRI, FIG. 9a bottom panel): dramatic decrease in surface expression of ferroportin; also recorded: degradation of ferroportin | kidney H-Ferritin expression (C57BL/6 mice [4]; hepcidin-IRI Vs IRI p<0.005, Vs Sham p<0.05, FIG. 5c-d): significantly higher H-Ferritin expression compared to both untreated IRI mice and sham mice; also recorded: prevented | kidney ferroportin expression (membrane fraction) (C57BL/6 mice [4]): prevented the IRI induced upregulation | kidney ferroportin expression (membrane fraction) (C57BL/6 mice [4]; listed as hepcidin): levels comparable to sham mice | IL-6 secretion into supernatants (splenocytes from WT mice): no significant difference in IL-6 levels | splenic H-Ferritin [5]: increased splenic H-Ferritin levels | splenic H-Ferritin ([5]; listed as hepcidin): significantly higher H-Ferritin compared to both untreated IRI mice and sham controls | splenic ferroportin expression ([5]; hepcidin reconstitution in HAMP-/- mice, renal IRI): lower ferroportin expression than sham-operated mice

Reference: patent US11020457B2, “Compositions and methods for protecting the kidney from ischemia reperfusion injury” (University of Virginia Patent Foundation, priority 2013, dated 2021)
